Assay results as given in patent US20180008629A1, “Compositions and Methods for Treating NLRP3 Inflammasome-Related Diseases and Disorders” (priority 2015, published 2018).

Key:
[1] = biological target: T1, ASC (Mus musculus, UniProt Q9EPB4); assay: ASC oligomerization and ASC speck formation in BMDMs; assay type: cell-based
T1 construct: endogenous in cells; host or cells: mouse BMDMs primed with LPS and stimulated with ATP
T1 sequence (Q9EPB4 1-193): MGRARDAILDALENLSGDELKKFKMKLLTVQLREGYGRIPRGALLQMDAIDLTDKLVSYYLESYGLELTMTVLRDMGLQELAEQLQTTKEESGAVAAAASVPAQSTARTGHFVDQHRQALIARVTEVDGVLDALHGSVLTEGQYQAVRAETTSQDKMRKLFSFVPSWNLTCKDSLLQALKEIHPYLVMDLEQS
Experimental: The ASC oligomerization was performed using previously described methods (Yu et al., 2006, Cell. Death Differ. 13:236-249). BMDM were plated on chamber slides and allowed to attach overnight. The following day cells were primed with LPS and treated with ATP±BHB (10 mM) as described in the materials and methods. Cells were fixed with 4% paraformaldehyde followed by ASC (Enzo Lifesciences) and DAPI staining. ASC specks were quantified using ImageJ software. At least 5 distinct fields were analyzed and a minimum of 550 cells from each treatment condition were quantified. Data are shown as mean±SD and are representative of two independent experiments. Statistical differences were calculated by student's t-test.

[2] = tested on: human neutrophils; assay: IL-1β secretion from human peripheral blood neutrophils (ELISA); assay type: cell-based; details: peripheral blood neutrophils from adult (30-40 years) and old (65-75 years)
Experimental: BHB was also observed to inhibit IL1B production from human neutrophils irrespective of age. Peripheral blood neutrophils from adult (30-40 years) and old (65-75 years) were enriched and stimulated as indicated (FIG. 20). IL-1β secretion was measured in culture supernatants by ELISA. Data are expressed as mean±S.E.M (*p<0.01).

[3] = tested on: neutrophil hyperactivation; assay: MSU peritonitis model in old mice fed ketogenic diet; assay type: in vivo, mouse; details: ketogenic diet one week prior to MSU challenge
Experimental: Old mice were fed a ketogenic diet for one week prior to MSU challenge to induce neutrophil infiltration and inflammasome activation (FIG. 16A). Body weights and blood BHB concentrations were measured daily. Four hours after MSU injection, total peritoneal cells were collected and analyzed by FACS to enumerate total neutrophil infiltration (FIG. 16B). Gene expression within peritoneal cells was measured by RT-PCR (FIG. 16C). Expression was normalized to Gapdh expression and data are represented as expression relative to adults. Data are pooled from two independent experiments (FIGS. 16B and 16C). Statistical differences were calculated by 2-way ANOVA (FIG. 16A) or 1-way ANOVA (FIG. 16B). […]
Mice were fed a ketogenic diet for 1 week prior to an increase in BHB levels and then infection or peritonitis was induced by injection of monosodium urate. Body weights and blood BHB concentrations were measured daily in old mice during ketogenic diet feeding, prior to MSU injection (FIG. 19A). […] The peritoneal cells were isolated and pro-inflammatory cytokine Il1b, Nlrp3 and Tnf gene expression was measured by RT-PCR (FIG. 19B). […] Blood BHB levels were measured in adult mice 24 hr post-infection with Staphylococcus aureus (FIG. 19C). Total cells collected from brocho-aleveolar lavage BAL fluid from lungs 24 hr post-infection were quantified (FIG. 19D). […]

[4] = biological target: NLRP3 inflammasome (Mus musculus, UniProt Q8R4B8); assay: IL-1β secretion from mouse neutrophils after NLRP3 activation (western blot); assay type: cell-based; design: endogenous in cells; host or cells: mouse bone marrow neutrophils (A15)
Sequence of NLRP3 inflammasome (Q8R4B8 whole entry): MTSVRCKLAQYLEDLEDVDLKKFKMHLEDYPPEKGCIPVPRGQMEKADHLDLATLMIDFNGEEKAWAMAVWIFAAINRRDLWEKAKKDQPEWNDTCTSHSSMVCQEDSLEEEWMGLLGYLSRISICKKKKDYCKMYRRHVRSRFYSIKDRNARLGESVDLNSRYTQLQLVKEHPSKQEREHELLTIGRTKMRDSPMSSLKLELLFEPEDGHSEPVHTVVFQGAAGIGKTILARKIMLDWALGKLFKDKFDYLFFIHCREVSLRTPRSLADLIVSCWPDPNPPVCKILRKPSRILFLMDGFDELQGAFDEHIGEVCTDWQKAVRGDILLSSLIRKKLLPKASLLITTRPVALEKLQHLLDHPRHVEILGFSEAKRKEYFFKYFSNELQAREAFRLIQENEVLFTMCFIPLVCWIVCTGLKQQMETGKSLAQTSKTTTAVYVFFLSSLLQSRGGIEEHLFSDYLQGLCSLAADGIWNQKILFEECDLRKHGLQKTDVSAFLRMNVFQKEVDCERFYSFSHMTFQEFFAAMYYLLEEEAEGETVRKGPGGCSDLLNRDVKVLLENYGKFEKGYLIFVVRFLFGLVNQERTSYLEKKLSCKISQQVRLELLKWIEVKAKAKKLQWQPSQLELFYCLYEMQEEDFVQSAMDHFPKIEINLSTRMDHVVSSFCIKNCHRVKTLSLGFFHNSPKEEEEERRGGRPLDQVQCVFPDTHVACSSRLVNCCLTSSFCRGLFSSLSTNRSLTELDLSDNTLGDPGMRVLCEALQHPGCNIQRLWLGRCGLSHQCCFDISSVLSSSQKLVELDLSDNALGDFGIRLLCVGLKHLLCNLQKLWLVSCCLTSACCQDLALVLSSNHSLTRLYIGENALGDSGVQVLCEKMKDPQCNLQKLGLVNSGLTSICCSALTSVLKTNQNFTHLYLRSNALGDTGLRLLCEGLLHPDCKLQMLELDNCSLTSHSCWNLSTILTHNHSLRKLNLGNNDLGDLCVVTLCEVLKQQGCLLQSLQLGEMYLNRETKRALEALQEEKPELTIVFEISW
Experimental: Neutrophils from young (3 month) and aged (24 months) mice were stimulated with LPS, and the NLRP3 inflammasome was activated by treatment with ATP and C6 Ceramide. BHB was provided at the same time of ATP and ceramide treatment.
Adult and old neutrophils were analyzed for ketogenic and ketolytic enzyme expression. Gene expression was measured by RT-PCR (FIG. 14A). Expression was normalized to Gapdh expression and was represented as expression relative to adult gene expression. SCOT, HMGCL, and β-Actin protein expression were assessed in unstimulated adult and old neutrophils by Western blot (FIG. 14B). Dose response to BHB was measured by assaying IL-1β secretion in supernatants from adult neutrophils (FIG. 14C). Western blots were generated of IL-1β in supernatants from adult and old neutrophils stimulated with LPS+ATP or LPS+ceramide (FIG. 14D). In FIG. 14A, each dot represents a pooled sample of n=2 mice. In FIGS. 14B-14D, each blot is representative of at least two independent experiments. Each sample analyzed by Western blot is pooled from n=4-6 mice per experiment.
Adult neutrophils were stimulated with LPS+ATP+BHB to test the mechanism by which BHB blocks IL-1β secretion. LPS-primed neutrophils were stimulated with ATP in the presence of BHB or niacin (FIG. 15A). Supernatants were analyzed for IL-1β secretion by Western blot. Wildtype of mCAT neutrophils were stimulated with LPS+ATP+BHB (FIG. 15B). Supernatants were analyzed for IL-1β secretion by Western blot. Catalase and β-Actin expression were measured by Western blot in neutrophil cell lysates. LPS-primed neutrophils were stimulated with ATP+BHB in the presence of 3-MA or AOA as indicated (FIG. 15C). Supernatants were analyzed for IL-1β secretion by Western blot. The enantiomer S-BHB was tested in a dose response for the ability to inhibit inflammasome activation (FIG. 15D). Supernatants were analyzed for IL-1β secretion by Western blot. FCAS neutrophils were incubated with 4-OHT followed by LPS priming. […] Supernatants were analyzed for IL-1β secretion by Western blot. […]

## CC(O)CC(=O)O (stereo not drawn) [BHB, β-hydroxybutyrate]
[1]; BMDMs primed with LPS (4 h), ATP and BHB 1 h, DSS cross-linked ASC
  ASC oligomerization in response to NLRP3 ligand ATP: prevented
[1]; BMDMs, LPS+ATP, BHB (10 mM)
  ASC speck formation: prevented
[2]
  IL1B production from human neutrophils: inhibit
[3]
  neutrophil hyperactivation in peritonitis: prevented
[4]; adult and old mouse neutrophils, LPS+ATP or LPS+ceramide, IL-1β in supernatants
  NLRP3 inflammasome activation in neutrophils: inhibit
[4]; adult neutrophils stimulated with LPS+ATP+BHB
  mechanism of inhibitory effects in neutrophils: physically blocking inflammasome assembly
[4]; neutrophils from young (3 month) and aged (24 month) mice, LPS, ATP and C6 Ceramide, 10 mM BHB
  IL-1β production after NLRP3 activation in neutrophils: blocks
